The source of these data is PubChem BioAssay AID330 (DTP/NCI, 2004).

Several values for one entry are separate records, joined by “and”; a condition that tells them apart may be missing. Identical values can stand only once. Toxic doses and inconclusive results are not listed.

This experiment concerns P388 leukemia ip, CD2F1 mice, survival T/C. Briefly: NCI In Vivo Anticancer Drug Screen. Data for tumor model P388 Leukemia (intraperitoneal) in CD2F1 (CDF1) mice. The following applies: endpoint: median survival time, higher = longer survival. In outline:
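Mice carrying the transplanted tumor received test compound or vehicle. Survival was recorded in each group, and the value is the treated-group measurement divided by that of the vehicle-treated control group.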

The mark [1] stands for this setting: dose: 50.0 mg/kg/injection, schedule: Q01DX009 (ip), vehicle: saline with Tween-80.
Setting [2] is: dose: 100.0 mg/kg/injection, schedule: Q01DX009 (ip), vehicle: saline with Tween-80.
Setting [3] is: dose: 50.0 mg/kg/injection, schedule: Q01DX005 (ip), vehicle: Klucel (hydroxypropylcellulose) (HPC).
[4] abbreviates: dose: 100.0 mg/kg/injection, schedule: Q01DX005 (ip), vehicle: Klucel (hydroxypropylcellulose) (HPC).
Setting [5] is: dose: 200.0 mg/kg/injection, schedule: Q01DX005 (ip), vehicle: Klucel (hydroxypropylcellulose) (HPC).
[6] abbreviates: dose: 15.0 mg/kg/injection, schedule: Q01DX009 (ip), vehicle: saline.
Setting [7] is: dose: 30.0 mg/kg/injection, schedule: Q01DX009 (ip), vehicle: saline.
Where [8] appears, read: dose: 60.0 mg/kg/injection, schedule: Q01DX009 (ip), vehicle: saline.
[9] abbreviates: dose: 200.0 mg/kg/injection, schedule: Q01DX009 (ip), vehicle: saline with Tween-80.
Where [10] appears, read: dose: 50.0 mg/kg/injection, schedule: Q04DX003 (ip), vehicle: saline.

For `FC(F)(F)C1=C(C(F)(F)F)OP2(Oc3ccccc3)(O1)Oc1ccccc1O2`, the T/C (dose: 25.0 mg/kg/injection, schedule: Q04DX003 (ip), vehicle: suspension in saline) was 102 % of control; the T/C (dose: 50.0 mg/kg/injection, schedule: Q04DX003 (ip), vehicle: suspension in saline) was 101 % of control; the T/C (dose: 100.0 mg/kg/injection, schedule: Q04DX003 (ip), vehicle: suspension in saline) was 97 % of control.
On to `O=C1CCC(n2cc(F)c(=O)[nH]c2=O)O1` (centres undefined), for which the T/C by setting is: (dose: 25.0 mg/kg/injection, schedule: Q04DX003 (ip), vehicle: saline with Tween-80) 105 % of control and 94 % of control; (dose: 50.0 mg/kg/injection, schedule: Q04DX003 (ip), vehicle: saline with Tween-80) 108 % of control and 95 % of control; (dose: 100.0 mg/kg/injection, schedule: Q04DX003 (ip), vehicle: saline with Tween-80) 101 % of control and 120 % of control and 95 % of control; (dose: 400.0 mg/kg/injection, schedule: Q04DX003 (ip), vehicle: saline with Tween-80) 103 % of control.
For `Nc1ccc2c(Cl)cc(Cl)cc2c1`, the T/C is 100 % of control under setting [1] and 104 % of control under setting [2].
With `Cc1cc(C(O)(C(F)(F)F)C(F)(F)F)cc(C(O)(C(F)(F)F)C(F)(F)F)c1`, the T/C under setting [3] was 100 % of control, the T/C under setting [4] is 91 % of control and the T/C under setting [5] was 97 % of control.
For `COc1ccc2cc1Oc1ccc(cc1)CC1c3c(c(OC)c(OC)c(OC)c3Oc3cc4c(cc3OC)CCN(C)C4C2)CCN1C` (centres undefined), the T/C was 94 % of control under setting [6], 94 % of control under setting [7] and 103 % of control under setting [8].
As for `CC1S(=O)(=O)O[Si](C)(C)CC[Si](C)(C)OS1(=O)=O`, the T/C was 105 % of control under setting [3], 100 % of control under setting [4] and 102 % of control under setting [5].
For the compound `O=S(=O)(Cc1ccccc1)/N=C/c1ccccc1`, the T/C under setting [1] is 103 % of control and 105 % of control; the T/C under setting [2] was 99 % of control and 105 % of control; the T/C under setting [9] is 107 % of control and 123 % of control.
Turning to `CN=C1N[N+]2=CCCCC2S1` (centres undefined), the T/C (dose: 12.5 mg/kg/injection, schedule: Q04DX003 (ip), vehicle: saline) is 102 % of control; the T/C under setting [6] is 100 % of control and 101 % of control; the T/C (dose: 25.0 mg/kg/injection, schedule: Q04DX003 (ip), vehicle: saline) was 104 % of control; the T/C under setting [7] was 92 % of control and 97 % of control; the T/C under setting [10] is 97 % of control; the T/C under setting [8] was 114 % of control and 96 % of control. Also, the T/C (dose: 120.0 mg/kg/injection, schedule: Q01DX009 (ip), vehicle: saline) is 120 % of control and 96 % of control.
Consider `CC(O)CNC1CCCCC1` (centres undefined), for which the T/C (dose: 25.0 mg/kg/injection, schedule: Q01DX009 (ip), vehicle: saline with Tween-80) was 100 % of control; the T/C under setting [1] was 100 % of control; the T/C under setting [2] was 100 % of control.
On to `CC(=O)Nc1ccc(O)c(O)c1`, for which the T/C is, setting by setting: under setting [1], 116 % of control and 119 % of control; under setting [2], 120 % of control; under setting [9], 119 % of control.
As for `COC(=O)/C(C#N)=C/c1ccc(NC(C)=O)cc1`, the T/C by setting is: under setting [3], 93 % of control; under setting [4], 94 % of control; under setting [5], 88 % of control.
As to `Cc1[nH][nH]c(=O)c1[N+](=O)[O-]`, the T/C is, setting by setting: under setting [1], 99 % of control; under setting [2], 108 % of control; under setting [9], 114 % of control.
On to `COc1cc2cc[n+]3c(C)c4ccc(OC)c(OC)c4cc3c2cc1OC` (tested in a mixture with another compound), for which the T/C is 150 % of control (dose: 20.0 mg/kg/injection, schedule: Q01DX009 (ip), vehicle: saline); 154 % of control and 166 % of control (dose: 40.0 mg/kg/injection, schedule: Q01DX009 (ip), vehicle: saline).
`CCOc1ccc(/C=C2\CCc3ccccc3C2=O)cc1`: the T/C runs as follows: (dose: 50.0 mg/kg/injection, schedule: Q01DX009 (ip), vehicle: Klucel (hydroxypropylcellulose) (HPC)) 98 % of control; (dose: 100.0 mg/kg/injection, schedule: Q01DX009 (ip), vehicle: Klucel (hydroxypropylcellulose) (HPC)) 102 % of control; (dose: 200.0 mg/kg/injection, schedule: Q01DX009 (ip), vehicle: Klucel (hydroxypropylcellulose) (HPC)) 99 % of control.
Regarding `Cc1ccc(F)cc1NC(=S)NN`, the T/C runs as follows: (dose: 7.5 mg/kg/injection, schedule: Q01DX005 (ip), vehicle: Klucel (hydroxypropylcellulose) (HPC)) 100 % of control; (dose: 15.0 mg/kg/injection, schedule: Q01DX005 (ip), vehicle: Klucel (hydroxypropylcellulose) (HPC)) 99 % of control; (dose: 30.0 mg/kg/injection, schedule: Q01DX005 (ip), vehicle: Klucel (hydroxypropylcellulose) (HPC)) 91 % of control.
For `O=c1cccc(C(Cl)(Cl)Cl)o1`, the T/C (dose: 30.0 mg/kg/injection, schedule: Q01DX005 (ip), vehicle: saline + Tween-80 + alcohol) is 105 % of control; the T/C (dose: 60.0 mg/kg/injection, schedule: Q01DX005 (ip), vehicle: saline + Tween-80 + alcohol) is 104 % of control and 105 % of control; the T/C (dose: 120.0 mg/kg/injection, schedule: Q01DX005 (ip), vehicle: saline + Tween-80 + alcohol) is 105 % of control and 97 % of control.
As for `[Cl][Pt+2][Cl].[NH-]CC1(C[NH-])CCC1`, the T/C by setting is: (dose: 0.38 mg/kg/injection, schedule: Q01DX009 (ip), vehicle: saline) 114 % of control; (dose: 0.38 mg/kg/injection, schedule: Q01DX009 (ip), vehicle: suspension in saline) 161 % of control; (dose: 0.75 mg/kg/injection, schedule: Q01DX009 (ip), vehicle: suspension in saline) 215 % of control; (dose: 1.5 mg/kg/injection, schedule: Q01DX005 (ip), vehicle: saline) 175 % of control; (dose: 1.5 mg/kg/injection, schedule: Q01DX005 (ip), vehicle: suspension in saline) 161 % of control; (dose: 1.5 mg/kg/injection, schedule: Q01DX009 (ip), vehicle: saline) 165 % of control. The T/C by setting is: (dose: 1.5 mg/kg/injection, schedule: Q01DX009 (ip), vehicle: suspension in saline) 247 % of control; (dose: 3.0 mg/kg/injection, schedule: Q01DX005 (ip), vehicle: saline) 202 % of control; (dose: 3.0 mg/kg/injection, schedule: Q01DX005 (ip), vehicle: suspension in saline) 191 % of control; (dose: 3.0 mg/kg/injection, schedule: Q01DX009 (ip), vehicle: saline) 243 % of control; (dose: 3.0 mg/kg/injection, schedule: Q01DX009 (ip), vehicle: suspension in saline) 159 % of control; (dose: 6.0 mg/kg/injection, schedule: Q01DX005 (ip), vehicle: saline) 112 % of control. Further, the T/C runs as follows: (dose: 6.0 mg/kg/injection, schedule: Q01DX005 (ip), vehicle: suspension in saline) 198 % of control; (dose: 6.0 mg/kg/injection, schedule: Q01DX009 (ip), vehicle: saline) 215 % of control; (dose: 6.0 mg/kg/injection, schedule: Q01DX009 (ip), vehicle: suspension in saline) 119 % of control.
As for `O=C(O)c1ccccc1C(=O)Nc1ccccc1C(F)(F)F`, the T/C (dose: 178.0 mg/kg/injection, schedule: Q01DX009 (ip), vehicle: saline with Tween-80) is 110 % of control; the T/C (dose: 266.0 mg/kg/injection, schedule: Q01DX009 (ip), vehicle: saline with Tween-80) was 104 % of control; the T/C (dose: 400.0 mg/kg/injection, schedule: Q01DX009 (ip), vehicle: saline with Tween-80) is 101 % of control.
Regarding `CC(O)COCCOCCO` (centres undefined), the T/C was 100 % of control (dose: 100.0 mg/kg/injection, schedule: Q04DX003 (ip), vehicle: saline); 100 % of control (dose: 200.0 mg/kg/injection, schedule: Q04DX003 (ip), vehicle: saline); 104 % of control (dose: 400.0 mg/kg/injection, schedule: Q04DX003 (ip), vehicle: saline).
In the case of `COc1ccc2c(c1OC(C)=O)-c1cc(O)cc3c1C(C2)N(C(=O)CN(CCCl)CCCl)CC3` (centres undefined), the T/C was 116 % of control (dose: 3.13 mg/kg/injection, schedule: Q04DX003 (ip), vehicle: DMSO); 123 % of control (dose: 6.25 mg/kg/injection, schedule: Q04DX003 (ip), vehicle: DMSO); 174 % of control (dose: 12.5 mg/kg/injection, schedule: Q04DX003 (ip), vehicle: DMSO); 168 % of control (dose: 25.0 mg/kg/injection, schedule: Q04DX003 (ip), vehicle: DMSO); 154 % of control (dose: 25.0 mg/kg/injection, schedule: Q04DX003 (ip), vehicle: distilled water + Tween-80); 169 % of control (dose: 50.0 mg/kg/injection, schedule: Q04DX003 (ip), vehicle: DMSO). Further, the T/C under setting [10] is 87 % of control.
